Data from patent US11701372B2, “Inhalation formulations of 1'-cyano substituted carba-nucleoside analogs” (priority 2020, dated 2023).
Like-named read-outs stand apart in the source and are kept apart here.

Key:
[1] = type: physicochemical; conditions: for % assay/degs / Total degs / pH: T = 0
Protocol: For each condition, samples were staged at ambient and refrigerated conditions. Samples were analyzed for % assay/degs, appearance, reconstitution time, pH, and compared to T=0. The structures of the key impurities/metabolites are shown below.

[2] = In use testing of reconstituted solutions in IV bags and IV tubings; type: physicochemical
Source text: The IV bags and IV tubings were sampled over time and tested for % assay/degradation.

in vivo [3] = test: in vivo; parameters: species or system African Green Monkeys; conditions: monkey, iv, 10 mg/kg
in vivo [4] = conditions: both, monkey, inhaled or intranasal
Protocol: The average deposited dose was calculated at 0.168 mg/kg and 0.536 mg/kg, respectively. Plasma, peripheral blood mononuclear cells (PBMCs), trachea, bronchi, lung lobe, liver, kidney, nasal mucosa and nasopharyngeal mucosa samples were collected in this study.

SMILES: CCC(CC)COC(=O)[C@H](C)N[P@](=O)(OC[C@H]1O[C@@](C#N)(c2ccc3c(N)ncnn23)[C@H](O)[C@@H]1O)Oc1ccccc1 [Formula Ia, (S)-2-ethylbutyl 2-(((S)-(((2R,3S,4R,5R)-5-(4-aminopyrrolo[2,1-f][1,2,4]triazin-7-yl)-5-cyano-3,4-dihydroxytetrahydrofuran-2-yl)methoxy)(phenoxy)phosphoryl)amino)propanoate]
- pH, difference from T = 0 ([1]; pH 3.5, Ambient, 2 h): 0.0
- % assay/degs, difference from T = 0 ([1]; pH 3.5, Ambient, 8 h): 0.2%
- Total degs, difference from T = 0 ([1]; pH 3.5, Ambient, 8 h): 0.0%
- pH, difference from T = 0 ([1]; pH 3.5, Ambient, 8 h): 0.0
- % assay/degs, difference from T = 0 ([1]; pH 3.5, Ambient, 24 h): 0.6%
- Total degs, difference from T = 0 ([1]; pH 3.5, Ambient, 24 h): 0.0%
- pH, difference from T = 0 ([1]; pH 3.5, Ambient, 24 h): 0.0
- % assay/degs, difference from T = 0 ([1]; pH 3.5, Ambient, 48 h): 0.3%
- Total degs, difference from T = 0 ([1]; pH 3.5, Ambient, 48 h): 0.1%
- pH, difference from T = 0 ([1]; pH 3.5, Ambient, 48 h): 0.0
- % assay/degs, difference from T = 0 ([1]; pH 3.5, Ambient, 72 h): 0.2%
- Total degs, difference from T = 0 ([1]; pH 3.5, Ambient, 72 h): 0.1%
- pH, difference from T = 0 ([1]; pH 3.5, Ambient, 72 h): −0.1
- % assay/degs, difference from T = 0 ([1]; pH 3.5, Ambient, 96 h): 0.0%
- Total degs, difference from T = 0 ([1]; pH 3.5, Ambient, 96 h): 0.1%
- pH, difference from T = 0 ([1]; pH 3.5, Ambient, 96 h): 0.0
- % assay/degs, difference from T = 0 ([1]; pH 3.5, Ambient, 168 h): 0.2%
- Total degs, difference from T = 0 ([1]; pH 3.5, Ambient, 168 h): 0.2%
- pH, difference from T = 0 ([1]; pH 3.5, Ambient, 168 h): 0.0
- % assay/degs ([1]; pH 3.5): 99.1%
- Total degs ([1]; pH 3.5): 0.1%
- pH ([1]; pH 3.5): 3.5
- % assay/degs, difference from T = 0 ([1]; pH 3.8, 2-8° C., 7.2 h): −0.2%
- Total degs, difference from T = 0 ([1]; pH 3.8, 2-8° C., 7.2 h): 0.0%
- pH, difference from T = 0 ([1]; pH 3.8, 2-8° C., 7.2 h): −0.1
- % assay/degs, difference from T = 0 ([1]; pH 3.8, 2-8° C., 24 h): 0.3%
- Total degs, difference from T = 0 ([1]; pH 3.8, 2-8° C., 24 h): 0.0%
- pH, difference from T = 0 ([1]; pH 3.8, 2-8° C., 24 h): 0.0
- % assay/degs, difference from T = 0 ([1]; pH 3.8, 2-8° C., 96 h): 0.1%
- Total degs, difference from T = 0 ([1]; pH 3.8, 2-8° C., 96 h): 0.0%
- pH, difference from T = 0 ([1]; pH 3.8, 2-8° C., 96 h): −0.1
- % assay/degs, difference from T = 0 ([1]; pH 3.8, 2-8° C., 168 h): 0.1%
- Total degs, difference from T = 0 ([1]; pH 3.8, 2-8° C., 168 h): 0.0%
- pH, difference from T = 0 ([1]; pH 3.8, 2-8° C., 168 h): −0.1
- % assay/degs, difference from T = 0 ([1]; pH 3.8, Ambient, 7.2 h): 0.0%
- Total degs, difference from T = 0 ([1]; pH 3.8, Ambient, 7.2 h): 0.0%
- pH, difference from T = 0 ([1]; pH 3.8, Ambient, 7.2 h): 0.0
- % assay/degs, difference from T = 0 ([1]; pH 3.8, Ambient, 24 h): 0.4%
- Total degs, difference from T = 0 ([1]; pH 3.8, Ambient, 24 h): 0.0%
- pH, difference from T = 0 ([1]; pH 3.8, Ambient, 24 h): 0.0
- % assay/degs, difference from T = 0 ([1]; pH 3.8, Ambient, 96 h): 0.0%
- Total degs, difference from T = 0 ([1]; pH 3.8, Ambient, 96 h): 0.1%
- pH, difference from T = 0 ([1]; pH 3.8, Ambient, 96 h): −0.1
- % assay/degs, difference from T = 0 ([1]; pH 3.8, Ambient, 168 h): 0.0%
- Total degs, difference from T = 0 ([1]; pH 3.8, Ambient, 168 h): 0.1%
- pH, difference from T = 0 ([1]; pH 3.8, Ambient, 168 h): −0.1
- % assay/degs ([1]; pH 3.8): 98.7%
- Total degs ([1]; pH 3.8): 0.1%
- pH ([1]; pH 3.8): 3.8
- % assay/degs, difference from T = 0 ([1]; pH 4.0, 2-8° C., 7.2 h): 0.0%
- Total degs, difference from T = 0 ([1]; pH 4.0, 2-8° C., 7.2 h): 0.0%
- pH, difference from T = 0 ([1]; pH 4.0, 2-8° C., 7.2 h): 0.0
- % assay/degs, difference from T = 0 ([1]; pH 4.0, 2-8° C., 24 h): 0.3%
- Total degs, difference from T = 0 ([1]; pH 4.0, 2-8° C., 24 h): 0.0%
- pH, difference from T = 0 ([1]; pH 4.0, 2-8° C., 24 h): 0.0
- % assay/degs, difference from T = 0 ([1]; pH 4.0, 2-8° C., 96 h): 0.2%
- Total degs, difference from T = 0 ([1]; pH 4.0, 2-8° C., 96 h): 0.0%
- pH, difference from T = 0 ([1]; pH 4.0, 2-8° C., 96 h): 0.0
- % assay/degs, difference from T = 0 ([1]; pH 4.0, 2-8° C., 168 h): 0.6%
- Total degs, difference from T = 0 ([1]; pH 4.0, 2-8° C., 168 h): 0.0%
- pH, difference from T = 0 ([1]; pH 4.0, 2-8° C., 168 h): −0.1
- % assay/degs, difference from T = 0 ([1]; pH 4.0, Ambient, 7.2 h): 0.3%
- Total degs, difference from T = 0 ([1]; pH 4.0, Ambient, 7.2 h): 0.0%
- pH, difference from T = 0 ([1]; pH 4.0, Ambient, 7.2 h): 0.0
- % assay/degs, difference from T = 0 ([1]; pH 4.0, Ambient, 24 h): 0.3%
- Total degs, difference from T = 0 ([1]; pH 4.0, Ambient, 24 h): 0.0%
- pH, difference from T = 0 ([1]; pH 4.0, Ambient, 24 h): 0.0
- % assay/degs, difference from T = 0 ([1]; pH 4.0, Ambient, 96 h): 0.0%
- Total degs, difference from T = 0 ([1]; pH 4.0, Ambient, 96 h): 0.1%
- pH, difference from T = 0 ([1]; pH 4.0, Ambient, 96 h): 0.0
- % assay/degs, difference from T = 0 ([1]; pH 4.0, Ambient, 168 h): −0.2%
- Total degs, difference from T = 0 ([1]; pH 4.0, Ambient, 168 h): 0.1%
- pH, difference from T = 0 ([1]; pH 4.0, Ambient, 168 h): −0.1
- % assay/degs ([1]; pH 4.0): 98.6%
- Total degs ([1]; pH 4.0): 0.1%
- pH ([1]; pH 4.0): 4.0
- Total degradation ([2]; 0 h, 0.3 mg/mL): 0.2 % w/w
- Total degradation ([2]; 0 h, 2 mg/mL): 0.2 % w/w
- Total degradation ([2]; 4 h, 0.3 mg/mL): 0.2 % w/w
- Total degradation ([2]; 4 h, 2 mg/mL): 0.2 % w/w
- Total degradation ([2]; 6 h, 0.3 mg/mL): 0.2 % w/w
- Total degradation ([2]; 6 h, 2 mg/mL): 0.2 % w/w
- Total degradation ([2]; 8 h, 0.3 mg/mL): 0.2 % w/w
- Total degradation ([2]; 8 h, 2 mg/mL): 0.2 % w/w
- Total degradation ([2]; 24 h, 0.3 mg/mL): 0.2 % w/w
- Total degradation ([2]; 24 h, 2 mg/mL): 0.2 % w/w
- Total degradation ([2]; 48 h, 0.3 mg/mL): 0.2 % w/w
- Total degradation ([2]; 48 h, 2 mg/mL): 0.2 % w/w
- AUC(0-t) (in vivo [3]): 7.26 µM·h
- AUC(0-t) (in vivo [4]; 0.168 mg/kg): 0.023 ± 0.008 µM·h
- Cmax (in vivo [4]; 0.168 mg/kg): 39 ± 14 nM
- Tmax (in vivo [4]; 0.168 mg/kg): 0.52 h
- AUC(0-t) (in vivo [4]; 0.536 mg/kg): 0.146 ± 0.045 µM·h
- Cmax (in vivo [4]; 0.536 mg/kg): 101 ± 19 nM
- Tmax (in vivo [4]; 0.536 mg/kg): 1.53 h
